From ChEMBL document CHEMBL4627335, “Lead discovery, chemical optimization, and biological evaluation studies of novel histone methyltransferase SET7 small-molecule inhibitors” (Bioorg Med Chem Lett, 2020)
Calls of active or inactive are those of the source. No cut-off for these calls is given here.

How the values were obtained:
[1] = target: T1, Histone-lysine N-methyltransferase SETD7 (Homo sapiens, UniProt Q8WTS6); assay: Inhibition of SET7 (unknown origin) using biotinylated histone polypeptide as substrate in presence of SAM by AlphaLISA assay
T1 sequence (Q8WTS6 whole entry): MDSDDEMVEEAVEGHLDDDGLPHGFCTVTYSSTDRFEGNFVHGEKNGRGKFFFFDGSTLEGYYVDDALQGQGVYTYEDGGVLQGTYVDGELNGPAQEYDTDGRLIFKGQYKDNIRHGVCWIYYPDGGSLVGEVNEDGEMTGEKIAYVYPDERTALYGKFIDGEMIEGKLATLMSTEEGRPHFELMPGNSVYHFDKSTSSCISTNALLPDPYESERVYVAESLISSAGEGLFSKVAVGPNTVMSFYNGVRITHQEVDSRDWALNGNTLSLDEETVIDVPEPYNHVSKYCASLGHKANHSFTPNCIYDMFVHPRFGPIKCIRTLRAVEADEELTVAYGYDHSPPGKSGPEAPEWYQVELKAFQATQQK

[2] = target: T2, Histone acetyltransferase KAT8 (Homo sapiens) (UniProt Q9H7Z6); assay: Inhibition of MOF (unknown origin) at 100 uM
T2 sequence (whole entry): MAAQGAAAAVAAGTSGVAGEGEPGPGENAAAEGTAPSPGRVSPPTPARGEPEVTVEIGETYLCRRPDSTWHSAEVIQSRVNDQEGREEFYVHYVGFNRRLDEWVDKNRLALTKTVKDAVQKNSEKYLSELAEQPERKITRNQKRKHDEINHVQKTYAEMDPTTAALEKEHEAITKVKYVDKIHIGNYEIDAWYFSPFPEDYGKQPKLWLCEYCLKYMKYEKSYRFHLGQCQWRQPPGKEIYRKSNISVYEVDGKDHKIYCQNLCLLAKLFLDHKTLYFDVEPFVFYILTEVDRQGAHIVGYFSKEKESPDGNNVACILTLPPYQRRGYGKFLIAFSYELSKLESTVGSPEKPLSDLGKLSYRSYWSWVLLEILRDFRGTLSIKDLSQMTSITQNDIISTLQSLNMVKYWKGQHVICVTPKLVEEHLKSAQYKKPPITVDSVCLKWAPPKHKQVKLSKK

[3] = target: T1, Histone-lysine N-methyltransferase SETD7; assay: Binding affinity to SET7 (unknown origin) by SPR analysis
HUVEC = assay: Cytotoxicity against HUVEC assessed as reduction in cell viability by Cell Titer-Glo based luminescence assay; conditions: human
[4] = target: T3, Histone-lysine N-methyltransferase SUV39H1 (Homo sapiens) (UniProt O43463); assay: Inhibition of SUV39H1 (unknown origin) at 100 uM
T3 sequence (whole entry): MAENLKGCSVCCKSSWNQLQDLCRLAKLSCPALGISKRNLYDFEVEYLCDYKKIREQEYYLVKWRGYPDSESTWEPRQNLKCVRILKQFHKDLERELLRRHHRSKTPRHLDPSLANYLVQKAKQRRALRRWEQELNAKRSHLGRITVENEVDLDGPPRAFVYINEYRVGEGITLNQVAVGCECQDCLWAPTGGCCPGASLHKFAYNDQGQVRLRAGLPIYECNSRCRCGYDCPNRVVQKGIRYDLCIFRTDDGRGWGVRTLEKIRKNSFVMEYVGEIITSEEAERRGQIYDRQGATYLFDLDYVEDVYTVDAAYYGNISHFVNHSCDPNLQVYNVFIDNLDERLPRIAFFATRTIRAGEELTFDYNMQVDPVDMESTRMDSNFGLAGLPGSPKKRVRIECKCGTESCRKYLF

[5] = target: Histone-lysine N-methyltransferase, H3 lysine-79 specific (Homo sapiens) (UniProt Q8TEK3); assay: Inhibition of DOT1L (unknown origin) at 100 uM
Sequence of Histone-lysine N-methyltransferase, H3 lysine-79 specific (Homo sapiens) (Q8TEK3 whole entry, looked up): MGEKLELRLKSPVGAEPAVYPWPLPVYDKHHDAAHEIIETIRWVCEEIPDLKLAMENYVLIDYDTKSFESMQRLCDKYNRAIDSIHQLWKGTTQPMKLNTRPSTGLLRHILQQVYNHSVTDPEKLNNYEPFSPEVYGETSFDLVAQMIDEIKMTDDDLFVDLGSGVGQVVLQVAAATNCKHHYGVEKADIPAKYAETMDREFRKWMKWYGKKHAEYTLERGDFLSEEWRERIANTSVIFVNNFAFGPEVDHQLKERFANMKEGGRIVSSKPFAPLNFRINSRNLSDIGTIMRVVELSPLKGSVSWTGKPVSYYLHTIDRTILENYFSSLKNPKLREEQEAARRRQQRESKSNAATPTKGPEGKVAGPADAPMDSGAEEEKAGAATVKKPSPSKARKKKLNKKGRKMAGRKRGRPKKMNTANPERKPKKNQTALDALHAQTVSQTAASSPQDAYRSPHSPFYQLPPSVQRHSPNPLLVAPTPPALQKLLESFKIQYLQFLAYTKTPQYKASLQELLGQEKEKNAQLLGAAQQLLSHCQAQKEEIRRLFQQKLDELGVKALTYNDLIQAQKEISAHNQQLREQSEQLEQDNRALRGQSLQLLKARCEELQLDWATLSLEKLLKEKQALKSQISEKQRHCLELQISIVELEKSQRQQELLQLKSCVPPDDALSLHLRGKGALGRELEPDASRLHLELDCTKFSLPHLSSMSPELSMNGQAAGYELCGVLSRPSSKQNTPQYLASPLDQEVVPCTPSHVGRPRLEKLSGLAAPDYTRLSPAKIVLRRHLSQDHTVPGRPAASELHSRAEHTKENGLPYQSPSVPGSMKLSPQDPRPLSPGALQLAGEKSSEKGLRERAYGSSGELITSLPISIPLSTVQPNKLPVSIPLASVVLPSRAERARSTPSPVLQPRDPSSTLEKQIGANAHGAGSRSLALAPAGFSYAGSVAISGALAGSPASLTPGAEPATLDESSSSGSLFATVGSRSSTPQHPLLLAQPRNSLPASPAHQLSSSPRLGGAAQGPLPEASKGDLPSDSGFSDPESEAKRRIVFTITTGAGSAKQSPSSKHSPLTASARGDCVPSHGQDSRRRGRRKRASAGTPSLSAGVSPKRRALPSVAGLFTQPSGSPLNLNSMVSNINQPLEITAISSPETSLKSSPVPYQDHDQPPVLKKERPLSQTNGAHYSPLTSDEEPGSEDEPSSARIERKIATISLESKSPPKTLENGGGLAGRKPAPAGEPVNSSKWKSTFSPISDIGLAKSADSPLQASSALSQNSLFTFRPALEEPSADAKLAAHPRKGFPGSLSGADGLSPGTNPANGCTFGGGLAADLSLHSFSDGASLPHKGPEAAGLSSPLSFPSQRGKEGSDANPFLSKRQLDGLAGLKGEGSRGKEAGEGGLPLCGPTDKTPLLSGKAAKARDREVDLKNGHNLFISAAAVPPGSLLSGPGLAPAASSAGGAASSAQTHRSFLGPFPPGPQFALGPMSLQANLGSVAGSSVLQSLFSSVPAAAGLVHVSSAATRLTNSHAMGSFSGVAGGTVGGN

[6] = target: T4, Histone-lysine N-methyltransferase EHMT2 (Homo sapiens) (UniProt Q96KQ7); assay: Inhibition of G9a (unknown origin) at 100 uM
T4 sequence (whole entry): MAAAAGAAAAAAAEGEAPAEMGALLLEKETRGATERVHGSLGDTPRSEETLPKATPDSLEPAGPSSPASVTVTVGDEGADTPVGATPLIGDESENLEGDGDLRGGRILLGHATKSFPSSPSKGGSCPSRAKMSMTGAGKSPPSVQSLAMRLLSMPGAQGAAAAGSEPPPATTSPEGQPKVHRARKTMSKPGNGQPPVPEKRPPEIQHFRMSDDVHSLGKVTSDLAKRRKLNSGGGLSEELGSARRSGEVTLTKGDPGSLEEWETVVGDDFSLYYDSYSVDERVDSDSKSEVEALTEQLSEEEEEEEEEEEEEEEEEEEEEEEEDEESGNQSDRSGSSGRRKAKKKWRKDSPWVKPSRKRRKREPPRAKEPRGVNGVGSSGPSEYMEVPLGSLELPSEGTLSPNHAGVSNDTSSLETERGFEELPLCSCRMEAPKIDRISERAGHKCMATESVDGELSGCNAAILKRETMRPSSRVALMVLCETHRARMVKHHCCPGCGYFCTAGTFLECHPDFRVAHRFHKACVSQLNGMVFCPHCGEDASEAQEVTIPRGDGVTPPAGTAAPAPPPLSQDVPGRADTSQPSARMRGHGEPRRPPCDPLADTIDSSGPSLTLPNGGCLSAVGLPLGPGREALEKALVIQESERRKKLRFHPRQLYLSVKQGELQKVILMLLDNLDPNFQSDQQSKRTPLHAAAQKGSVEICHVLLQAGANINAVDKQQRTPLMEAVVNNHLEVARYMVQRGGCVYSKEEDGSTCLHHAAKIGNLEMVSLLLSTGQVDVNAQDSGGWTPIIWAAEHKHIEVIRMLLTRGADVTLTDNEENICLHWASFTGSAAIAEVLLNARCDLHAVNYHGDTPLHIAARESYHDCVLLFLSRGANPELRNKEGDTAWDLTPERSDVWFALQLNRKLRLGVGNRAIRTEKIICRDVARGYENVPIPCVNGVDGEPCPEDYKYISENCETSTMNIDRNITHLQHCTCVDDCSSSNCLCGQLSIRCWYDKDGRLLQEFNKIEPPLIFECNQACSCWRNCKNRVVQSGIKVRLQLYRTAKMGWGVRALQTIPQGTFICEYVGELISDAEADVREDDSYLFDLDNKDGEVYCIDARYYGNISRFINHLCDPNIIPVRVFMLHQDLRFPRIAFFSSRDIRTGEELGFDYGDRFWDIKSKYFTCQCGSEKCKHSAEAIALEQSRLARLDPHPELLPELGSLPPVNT

[7] = target: T5, Histone-lysine N-methyltransferase SETD7 (Homo sapiens) (UniProt Q8WTS6); assay: Inhibition of SET7 (unknown origin) at 100 uM
T5 sequence (whole entry): T1 sequence (Q8WTS6 whole entry)

MRC5 = assay: Cytotoxicity against human MRC5 cells assessed as reduction in cell viability by Cell Titer-Glo based luminescence assay
MCF7 = assay: Antiproliferative activity against human MCF7 cells expresses endogenous ER by Cell Titer-Glo based luminescence assay
[8] = target: Histone-lysine N-methyltransferase, H3 lysine-36 specific (Homo sapiens) (UniProt Q96L73); assay: Inhibition of NSD1 (unknown origin) at 100 uM
Sequence of Histone-lysine N-methyltransferase, H3 lysine-36 specific (Homo sapiens) (Q96L73 whole entry): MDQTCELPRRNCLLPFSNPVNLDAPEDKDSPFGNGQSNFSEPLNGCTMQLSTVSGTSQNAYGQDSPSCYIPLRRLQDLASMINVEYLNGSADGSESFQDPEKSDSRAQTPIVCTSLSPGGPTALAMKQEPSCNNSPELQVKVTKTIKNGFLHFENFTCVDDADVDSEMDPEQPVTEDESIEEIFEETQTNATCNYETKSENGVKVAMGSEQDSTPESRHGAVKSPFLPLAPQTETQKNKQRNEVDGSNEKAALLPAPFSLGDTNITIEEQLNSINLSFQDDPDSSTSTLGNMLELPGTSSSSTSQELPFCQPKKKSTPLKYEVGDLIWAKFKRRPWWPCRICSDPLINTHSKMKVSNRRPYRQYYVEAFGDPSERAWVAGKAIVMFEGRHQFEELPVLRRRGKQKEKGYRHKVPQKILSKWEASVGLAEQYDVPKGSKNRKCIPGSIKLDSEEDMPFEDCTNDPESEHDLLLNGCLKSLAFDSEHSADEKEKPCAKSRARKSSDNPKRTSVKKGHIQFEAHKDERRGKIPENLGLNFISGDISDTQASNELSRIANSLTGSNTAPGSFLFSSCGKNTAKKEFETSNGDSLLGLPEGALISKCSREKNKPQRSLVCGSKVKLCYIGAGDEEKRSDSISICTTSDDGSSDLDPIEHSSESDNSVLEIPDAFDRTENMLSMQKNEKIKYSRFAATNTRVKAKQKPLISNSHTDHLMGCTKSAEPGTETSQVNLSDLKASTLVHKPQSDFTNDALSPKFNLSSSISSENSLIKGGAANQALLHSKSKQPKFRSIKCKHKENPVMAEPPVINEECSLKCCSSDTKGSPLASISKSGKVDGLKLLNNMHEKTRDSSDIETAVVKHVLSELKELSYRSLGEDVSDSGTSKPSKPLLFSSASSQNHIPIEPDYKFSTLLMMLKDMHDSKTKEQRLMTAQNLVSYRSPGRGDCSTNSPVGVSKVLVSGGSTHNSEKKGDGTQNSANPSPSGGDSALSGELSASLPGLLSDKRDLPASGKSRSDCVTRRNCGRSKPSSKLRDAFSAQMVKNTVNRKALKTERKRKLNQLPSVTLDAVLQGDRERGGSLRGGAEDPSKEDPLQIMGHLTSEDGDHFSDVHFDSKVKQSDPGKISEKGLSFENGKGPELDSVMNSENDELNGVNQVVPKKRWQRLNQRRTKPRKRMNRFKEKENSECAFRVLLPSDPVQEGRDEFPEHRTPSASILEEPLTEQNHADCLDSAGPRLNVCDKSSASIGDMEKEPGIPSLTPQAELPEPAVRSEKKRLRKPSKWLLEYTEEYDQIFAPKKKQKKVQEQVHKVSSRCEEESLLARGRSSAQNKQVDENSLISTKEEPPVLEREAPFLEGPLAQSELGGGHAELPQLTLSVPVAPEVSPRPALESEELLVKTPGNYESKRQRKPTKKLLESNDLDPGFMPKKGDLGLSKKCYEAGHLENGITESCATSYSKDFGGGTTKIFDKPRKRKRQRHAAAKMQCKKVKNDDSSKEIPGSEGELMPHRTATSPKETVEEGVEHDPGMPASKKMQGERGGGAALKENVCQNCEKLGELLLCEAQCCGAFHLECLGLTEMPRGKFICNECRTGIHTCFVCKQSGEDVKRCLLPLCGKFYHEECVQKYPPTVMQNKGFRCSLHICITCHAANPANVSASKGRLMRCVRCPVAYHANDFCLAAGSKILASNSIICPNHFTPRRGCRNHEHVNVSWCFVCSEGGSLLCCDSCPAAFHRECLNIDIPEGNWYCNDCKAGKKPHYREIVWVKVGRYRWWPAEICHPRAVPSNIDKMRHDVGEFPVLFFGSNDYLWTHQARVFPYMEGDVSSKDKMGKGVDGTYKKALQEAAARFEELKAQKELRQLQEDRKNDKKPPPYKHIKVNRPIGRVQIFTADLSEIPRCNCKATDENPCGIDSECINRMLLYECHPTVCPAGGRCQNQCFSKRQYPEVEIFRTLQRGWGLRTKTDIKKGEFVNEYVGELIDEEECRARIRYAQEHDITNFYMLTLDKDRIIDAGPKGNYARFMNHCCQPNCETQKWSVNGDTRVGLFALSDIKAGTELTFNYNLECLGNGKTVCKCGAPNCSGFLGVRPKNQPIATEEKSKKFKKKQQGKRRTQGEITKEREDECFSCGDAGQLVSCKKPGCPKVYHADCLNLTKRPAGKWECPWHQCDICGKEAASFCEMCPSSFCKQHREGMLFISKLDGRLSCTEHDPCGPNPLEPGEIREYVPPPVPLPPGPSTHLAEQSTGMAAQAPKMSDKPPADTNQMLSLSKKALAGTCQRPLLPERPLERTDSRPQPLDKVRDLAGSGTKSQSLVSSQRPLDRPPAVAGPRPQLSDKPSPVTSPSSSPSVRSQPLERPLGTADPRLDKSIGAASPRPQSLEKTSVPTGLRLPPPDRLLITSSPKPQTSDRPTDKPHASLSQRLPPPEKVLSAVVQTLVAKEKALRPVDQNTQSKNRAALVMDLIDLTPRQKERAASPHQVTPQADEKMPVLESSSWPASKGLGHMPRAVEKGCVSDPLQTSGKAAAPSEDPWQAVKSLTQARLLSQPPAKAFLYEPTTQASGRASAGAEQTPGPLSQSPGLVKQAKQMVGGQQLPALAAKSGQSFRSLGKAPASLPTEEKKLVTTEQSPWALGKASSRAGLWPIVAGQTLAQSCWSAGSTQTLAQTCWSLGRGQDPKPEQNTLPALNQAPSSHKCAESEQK

[9] = target: T5, Histone-lysine N-methyltransferase SETD7 (Homo sapiens); assay: Inhibition of SET7 in human MCF7 cells assessed as reduction in ERalpha protein expression by Western blot analysis; type: cell-based

| IC50 [1] [µM] | SMILES | also measured |
| --- | --- | --- |
| > 200 | N#Cc1cccc(-c2ccc(C(=O)N3CCNCC3)cc2)c1 |  |
| > 200 | COc1ccc(OC)c(-c2ccc(CN3CCCC3)c(NS(=O)(=O)c3ccccc3)c2)c1 |  |
| > 200 | O=C1C=CC(=O)C(c2ccc(Br)cc2)=C1 |  |
| > 200 | COC1=CC(=O)c2ccccc2C1=O [2-Methoxy-1,4-naphthoquinone] |  |
| > 200 | CC(C)c1ccc(C2=CC(=O)C=CC2=O)cc1 |  |
| > 200 | O=C1C=CC(=O)C(c2ccc(CN3CCCC3)c(NS(=O)(=O)c3ccc(C(F)(F)F)cc3)c2)=C1 |  |
| > 200 | CC(C)(C)OC(=O)N1CCN(C(=O)c2ccc(-c3ccc(C#N)cc3)cc2)CC1 |  |
| > 200 | N#Cc1ccc(-c2ccc(C(=O)O)cc2)cc1 |  |
| > 200 | CN(C)CCNC(=O)c1ccc(-c2cccc(C#N)c2)cc1 |  |
| > 200 | CCCCc1ccc(C2=CC(=O)C=CC2=O)cc1 |  |
| > 200 | Cc1ccc(C2=CC(=O)C=CC2=O)cc1 |  |
| > 200 | O=C1C=CC(=O)C(c2ccc(CN3CCOCC3)c(NS(=O)(=O)c3ccc(Cl)cc3)c2)=C1 |  |
| > 200 | COc1ccc(OC)c(-c2ccc(CN3CCN(C(=O)OC(C)(C)C)CC3)cc2)c1 |  |
| 15.9 | COC(=O)c1ccc(C2=CC(=O)C=CC2=O)o1 | inhibition [2]: inactive; Kd [3]: 18 µM; Activity (HUVEC): Toxic; inhibition [4]: inactive; inhibition [5]: inactive; inhibition [6]: inactive; inhibition [7]: Active; Activity (MRC5): Toxic; IC50 (MCF7): 25.8 µM; inhibition [8]: inactive; inhibition [9]: Dose-dependent effect |
| > 200 | O=C1C=CC(=O)C(c2ccc(CN3CCOCC3)c(NS(=O)(=O)c3ccc([N+](=O)[O-])cc3)c2)=C1 |  |
| > 200 | COc1ccc(OC)c(-c2ccc(CN3CCN(C(=O)OC(C)(C)C)CC3)c(N)c2)c1 |  |
| > 200 | COc1ccc(OC)c(-c2ccc(CN3CCOCC3)c(NS(=O)(=O)c3ccccc3)c2)c1 |  |
| > 200 | CN(C)CCNC(=O)c1ccc(-c2ccc(C#N)cc2)cc1 |  |
| > 200 | O=C1C=C(O)C(=O)c2ccccc21 [LAWSONE] |  |
| > 200 | O=C1C=CC(=O)C(c2ccc(CN3CCOCC3)c(NS(=O)(=O)c3ccc(C(F)(F)F)cc3)c2)=C1 |  |
| > 200 | O=C1C=CC(=O)C(c2cccc(C(F)(F)F)c2)=C1 |  |
| > 200 | COc1ccc(OC)c(-c2ccc(CN3CCCC3)c(N)c2)c1 |  |
| > 200 | Cc1ccc(C2=CC(=O)C=CC2=O)cc1C |  |
| > 200 | CC(C)(C)OC(=O)N1CCN(C(=O)c2ccc(-c3cccc(C#N)c3)cc2)CC1 |  |
| > 200 | COc1ccc(OC)c(-c2ccc(CN3CCCC3)c([N+](=O)[O-])c2)c1 |  |
| > 200 | N#Cc1cccc(-c2ccc(C(=O)O)cc2)c1 |  |
